Results on two compounds are retold here after ChEMBL document CHEMBL5390211, “Discovery of N-Arylsulfonyl-Indole-2-Carboxamide Derivatives as Galectin-3 and Galectin-8 C-Terminal Domain Inhibitors” (ACS Med Chem Lett, 2023).

For orientation: Kd means the constant that tells how readily two partners part at equilibrium. A high value points to weaker binding. A word on the inhibition: it is the drop in the measured response relative to a control, in per cent.

Test [1] deals with T1, Galectin-8 (Homo sapiens, UniProt O00214).
T1 sequence (O00214 whole entry): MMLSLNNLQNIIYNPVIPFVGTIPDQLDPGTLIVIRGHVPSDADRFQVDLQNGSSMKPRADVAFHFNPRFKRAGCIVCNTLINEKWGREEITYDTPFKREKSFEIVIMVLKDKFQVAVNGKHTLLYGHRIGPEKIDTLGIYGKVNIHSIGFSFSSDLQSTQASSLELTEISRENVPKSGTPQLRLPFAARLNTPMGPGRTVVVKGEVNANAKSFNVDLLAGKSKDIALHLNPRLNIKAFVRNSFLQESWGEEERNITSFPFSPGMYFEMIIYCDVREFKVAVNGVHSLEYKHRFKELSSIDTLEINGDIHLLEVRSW
As to the kind of experiment: Binding affinity to N-terminal domain human Gal-8 expressed in Escherichia coli BL21 (DE3) cells by isothermal titration calorimetry analysis. On the technique in general: Isothermal titration calorimetry measures the heat released or taken up as one component is titrated into another.

In test [2] the target is T1, Galectin-8. Nature of the test: Binding affinity to C-terminal domain human Gal-8 expressed in Escherichia coli BL21 (DE3) cells by isothermal titration calorimetry analysis.
The target in test [3] is T1, Galectin-8. Nature of the test: Binding affinity to C-terminal domain human Gal-8 expressed in Escherichia coli BL21 (DE3) cells by competitive fluorescence polarization assay. On the technique in general: Fluorescence polarisation rises when a labelled molecule tumbles more slowly, as on binding a larger partner.
The target of test [4] is T1, Galectin-8. Nature of the test: Binding affinity to N-terminal domain human Gal-8 expressed in Escherichia coli BL21star (DE3) cells by competitive fluorescence polarization assay.
The next test concerns MRC5. Nature of the test: Inhibition of cell migration in human MRC5 cells assessed as reduction in would closure at 1 uM incubated for 48 hrs by Giemsa staining based microscopic analysis relative to control. Type of test: toxicity.
Test [5] addresses T1, Galectin-8. As to the kind of experiment: Binding affinity to N-terminal domain human Gal-8 expressed in Escherichia coli BL21 (DE3) cells by competitive fluorescence polarization assay.

For the compound LACTOSE, ANHYDROUS, the Kd on Galectin-8 [1] came to 893 µM; at Galectin-8 [2], 93 µM.

For `OC[C@H]1O[C@@H](S[C@@H]2O[C@H](CO)[C@H](O)[C@H](n3cc(-c4cccc(F)c4)nn3)[C@H]2O)[C@H](O)[C@@H](n2cc(-c3cccc(F)c3)nn2)[C@H]1O` [OLITIGALTIN], the equilibrium dissociation constant (Kd) at Galectin-8 [3] is 21.6 µM; at Galectin-8 [4], 86 µM; at Galectin-8 [5] it was 281 µM. In addition, the inhibition at 1 µM in the test on MRC5 came to 49%.
